Test results taken from PubChem BioAssay AID504745 (National Center for Advancing Translational Sciences (NCATS), 2011).

System: Caco-2 bidirectional permeability, efflux ratio, LC-MS/MS
Assay: Inhibitors of N370S glucocerebrosidase as a Potential Chaperone Treatment of Gaucher Disease: Efflux Ratio Profiling
Conditions: active compounds read low
Source text: Glucocerebrosidase (GC) catalyzes the hydrolysis of beta-glucocerebroside to glucose and ceramide in lysosomes. Mutations in the glucocerebrosidase gene result in Gaucher disease, an autosomal recessive lysosomal storage disorder. Many of the mutations encountered in patients with Gaucher disease are missense alterations that may cause misfolding, decreased stability and/or mistrafficking of this lysosomal protein. […] These inhibitors include iminosugar analogs and three non-iminosugar inhibitors identified from a previous HTS of 62,000 compounds with the wild type recombinant enzyme. After further testing a probe has been identified and was characterized though AMDE tests. This bioassays provides profiling data on Caco-2 cell permeability of leads compounds developed for the HPGD project. This in vitro model is often predictive of in vivo efflux of the compound by measuring the ratio of transport in and out the plasma membrane of the Caco2-cell line. NIH Chemical Genomics Center [NCGC] NIH Molecular Libraries Probe Production Centers Network [MLPCN] MLPCN Grant: MH086442-01 Assay Submitter (PI): Wei Zheng
1. […] The T0, LY and T90, LY plates are read by FlexStation 3 at excitation of 485 nm and emission of 535 nm to determine LY permeability. […]

efflux ratio: 9.9
SMILES: S=C(NCCCc1cnc[nH]1)NCCCN(Cc1ccc(Cl)c(Cl)c1)c1ccc(Br)cn1
